Measurements taken from PubChem BioAssay AID504394 (Southern Research Specialized Biocontainment Screening …, 2011).
Activity calls are given as the source filed them. The rule behind the calls is not given here.

System: host cell cytotoxicity, % cell control, 2% serum
Experiment: host cell cytotoxicity in HIV-1 fusion assay, dose response, cytotoxicity control for HIV-1 antiviral lead project, fusion assay cells, 2% serum, TC50 (AID 504394)

SMILES: COc1cccc(-n2cccc2/C=C2/C(=N)N3C(=NC2=O)SN=C3S(C)(=O)=O)c1
- TC50: > 100 µM (inactive)

SMILES: CS(=O)(=O)C1=NSC2=NC(=O)/C(=C\c3cccn3-c3cccc(F)c3)C(=N)N21
- TC50: > 100 µM (inactive)

SMILES: CCOC(=O)C1=C(C)N=c2sc(=Cc3ccc(OCC(=O)O)cc3)c(=O)n2C1c1ccccc1 (configuration not stated)
- TC50: > 100 µM (inactive)

SMILES: CS(=O)(=O)C1=NSC2=NC(=O)/C(=C\c3cccn3-c3ccc(F)cc3)C(=N)N21
- TC50: > 100 µM (inactive)

SMILES: O=C(O)CCCN1C(=O)/C(=C/c2ccc(-c3ccc(Cl)c(Cl)c3)o2)SC1=S
- TC50: 12.4 µM

SMILES: COc1cccc(C2C(C(=O)Nc3ccccc3)=C(C)N=c3sc(=Cc4ccc(OCC(=O)O)cc4)c(=O)n32)c1 (configuration not stated)
- TC50: > 100 µM (inactive)

SMILES: Cc1c2c(=O)n(-c3nc4ccccc4s3)nc-2cc(O)n1Cc1cccnc1
- TC50: > 100 µM (inactive)

SMILES: Cc1ccc(-c2ccc(/C=C3\SC(=S)N(CCCC(=O)O)C3=O)o2)cc1
- TC50: > 100 µM (inactive)

SMILES: O=C(O)c1ccc(C[n+]2c(-c3ccc([N+](=O)[O-])cc3)csc2Nc2ccccc2)cc1
- TC50: > 100 µM (inactive)

SMILES: CCOC(=O)C1=C(C)N=c2sc(=Cc3ccc(OCC(=O)O)cc3)c(=O)n2C1c1ccc(OC)cc1OC (configuration not stated)
- TC50: > 100 µM (inactive)

SMILES: O=C(O)c1ccc(C[n+]2c(-c3ccccc3)csc2Nc2ccccc2)cc1
- TC50: > 100 µM (inactive)

SMILES: CCOC(=O)C1=C(C)N=c2sc(=Cc3ccc(OCC(=O)O)cc3)c(=O)n2C1c1ccc(F)cc1 (configuration not stated)
- TC50: > 100 µM (inactive)

SMILES: O=C(O)CCC(C(=O)O)N1C(=O)/C(=C\c2ccco2)SC1=S (configuration not stated)
- TC50: > 100 µM (inactive)

SMILES: Cc1c2c(=O)n(-c3nc4ccccc4s3)nc-2cc(O)n1Cc1ccncc1
- TC50: > 100 µM (inactive)

SMILES: Cc1c2c(=O)n(-c3nc4ccccc4s3)nc-2cc(O)n1CCc1cccs1
- TC50: > 100 µM (inactive)

SMILES: COc1ccc(-c2ccc(/C=C3\SC(=S)N(CCCC(=O)O)C3=O)o2)cc1
- TC50: 68.3 µM

SMILES: CCOC(=O)C1=C(C)N=c2s/c(=C\c3ccc(OCC(=O)O)cc3)c(=O)n2C1c1ccc(OC)c(OCC)c1 (configuration not stated)
- TC50: 78.4 µM

SMILES: O=C(O)CCCN1C(=O)/C(=C\c2ccc(-c3cccc(Cl)c3)o2)SC1=S
- TC50: > 100 µM (inactive)

SMILES: CS(=O)(=O)C1=NSC2=NC(=O)/C(=C\c3cccn3-c3ccc(Br)cc3)C(=N)N21
- TC50: 46.2 µM

SMILES: CCOc1ccc(-n2cccc2/C=C2/C(=N)N3C(=NC2=O)SN=C3S(C)(=O)=O)cc1
- TC50: 84.7 µM

SMILES: Cc1c2c(=O)n(-c3nc4ccccc4s3)nc-2cc(O)n1C1CC1
- TC50: 83.9 µM

SMILES: O=C(O)CCCN1C(=O)/C(=C/c2ccc(-c3cccc(C(F)(F)F)c3)o2)SC1=S
- TC50: > 100 µM (inactive)

SMILES: COc1ccc(CCn2c(O)cc3nn(-c4nc5ccccc5s4)c(=O)c-3c2C)cc1
- TC50: 63.2 µM

SMILES: O=C(O)c1ccc([C@@H]2Nc3ccc(S(=O)(=O)Nc4cccc5ccccc45)cc3[C@@H]3C=CC[C@@H]32)cc1
- TC50: > 100 µM (inactive)

SMILES: CCOC(=O)C1=C(c2ccccc2)N=c2s/c(=C\c3ccc(OCC(=O)O)cc3)c(=O)n2C1c1cccc(OC)c1 (configuration not stated)
- TC50: 80.4 µM

SMILES: Nc1sc2ccccc2[n+]1Cc1ccc(C(=O)O)cc1
- TC50: > 100 µM (inactive)

SMILES: Cc1c2c(=O)n(-c3nc4ccccc4s3)nc-2cc(O)n1Cc1ccccc1Cl
- TC50: 38.1 µM

SMILES: CCOC(=O)C1=C(C)N=c2sc(=Cc3ccc(OCC(=O)O)cc3)c(=O)n2C1c1cc(OC)c(OC)c(OC)c1 (configuration not stated)
- TC50: > 100 µM (inactive)

SMILES: Cc1c2c(=O)n(-c3nc4ccccc4s3)nc-2cc(O)n1CCc1ccc(O)cc1
- TC50: 30 µM

SMILES: Cc1c2c(=O)n(-c3nc4ccccc4s3)nc-2cc(O)n1Cc1ccc(F)cc1
- TC50: 59.9 µM

SMILES: O=C(O)CCCN1C(=O)/C(=C\c2ccc(-c3ccc(F)cc3)o2)SC1=S
- TC50: 38.1 µM

SMILES: Cc1ccc(-n2cccc2/C=C2/C(=N)N3C(=NC2=O)SN=C3S(C)(=O)=O)cc1
- TC50: 66.5 µM

SMILES: CC1=C(C(=O)OC(C)C)C(c2ccc(Cl)cc2)n2c(s/c(=C\c3ccc(OCC(=O)O)cc3)c2=O)=N1 (configuration not stated)
- TC50: > 100 µM (inactive)

SMILES: COc1ccc(Cn2c(O)cc3nn(-c4nc5ccccc5s4)c(=O)c-3c2C)cc1
- TC50: 61.8 µM

SMILES: CS(=O)(=O)C1=NSC2=NC(=O)/C(=C\c3cccn3-c3cccc(C(F)(F)F)c3)C(=N)N21
- TC50: > 100 µM (inactive)

SMILES: Cc1c2c(=O)n(-c3nc4ccccc4s3)nc-2cc(O)n1CCC(C)C
- TC50: 68.5 µM

SMILES: CCOC(=O)C1=C(C)N=c2sc(=Cc3ccc(OCC(=O)O)cc3)c(=O)n2C1c1ccccc1OC (configuration not stated)
- TC50: > 100 µM (inactive)
